This note sets out measurements from patent publication US20180319810A1, “SUBSTITUTED BRIDGED UREA ANALOGS AS SIRTUIN MODULATORS” (GlaxoSmithKline Intellectual Property (No.2) Limited, priority 2014, published 2018).

The target of this test is T1, SIRT1 (Homo sapiens, UniProt Q96EB6).
T1 sequence (Q96EB6 1-747): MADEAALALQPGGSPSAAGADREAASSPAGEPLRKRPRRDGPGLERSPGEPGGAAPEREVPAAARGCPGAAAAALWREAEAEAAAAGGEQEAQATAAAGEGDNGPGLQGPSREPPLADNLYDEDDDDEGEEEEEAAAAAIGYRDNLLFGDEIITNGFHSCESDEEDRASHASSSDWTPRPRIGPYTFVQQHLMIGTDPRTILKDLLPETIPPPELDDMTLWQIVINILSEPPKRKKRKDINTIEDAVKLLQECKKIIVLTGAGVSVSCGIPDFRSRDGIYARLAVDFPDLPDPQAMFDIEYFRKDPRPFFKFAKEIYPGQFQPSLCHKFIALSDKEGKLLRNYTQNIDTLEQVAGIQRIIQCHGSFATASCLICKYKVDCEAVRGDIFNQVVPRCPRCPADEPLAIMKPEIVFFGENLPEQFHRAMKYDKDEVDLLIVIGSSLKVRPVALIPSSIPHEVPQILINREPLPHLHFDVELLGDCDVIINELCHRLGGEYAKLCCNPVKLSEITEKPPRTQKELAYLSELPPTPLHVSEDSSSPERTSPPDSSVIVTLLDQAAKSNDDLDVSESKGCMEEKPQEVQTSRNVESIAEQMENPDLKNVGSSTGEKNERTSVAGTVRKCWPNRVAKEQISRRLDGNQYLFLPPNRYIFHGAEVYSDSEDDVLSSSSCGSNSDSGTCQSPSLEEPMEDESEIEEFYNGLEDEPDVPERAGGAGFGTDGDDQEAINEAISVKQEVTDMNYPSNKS
Briefly: Trp mass spectrometry assay of SIRT1 activation. As to conditions: Trp peptide Ac-R-H-K-K(Ac)-W-NH2 0.5 μM, 120 μM βNAD+, 10 nM SIRT1, 25 min, 25° C. The format is biochemical. From the text:
Mass spectrometry based assays were used to identify modulators of SIRT1 activity. […] The peptide was labeled with the fluorophore 5TMR (excitation 540 nm/emission 580 nm) at the C-terminus. The sequence of the peptide substrate was based on p53 with several modifications. In addition, the methionine residue naturally present in the sequence was replaced with the norleucine because the methionine may be susceptible to oxidation during synthesis and purification.
The Trp mass spectrometry assay was conducted as follows. […] The SIRT1 protein was obtained by cloning the SirT1 gene into a T7-promoter containing vector, which was then expressed in BL21(DE3) bacterial cells and purified as described in further detail below. Test compound was added at varying concentrations to this reaction mixture and the resulting reactions were monitored. After the 25 minute incubation with SIRT1, 10 μL of 10% formic acid was added to stop the reaction. The resulting reactions were sealed and frozen for later mass spec analysis. The relative SIRT1 activity was then determined by measuring the amount of O-acetyl-ADP-ribose (OAADPR) formed (or, alternatively, the amount of deacetylated Trp peptide generated) by the NAD-dependent sirtuin deacetylation reaction in the presence of varying concentrations of the test compound versus control reactions lacking the test compound.
The degree to which the test agent activated deacetylation by SIRT1 was expressed as EC1.5 (i.e., the concentration of compound required to increase SIRT1 activity by 50% over the control lacking test compound), and Percent Maximum Activation (i.e., the maximum activity relative to control (100%) obtained for the test compound).
This time point was the same as that used for test compounds and, within the linear range, the endpoint represents a change in velocity.
For the above assay, SIRT1 protein was expressed and purified as follows. The SirT1 gene was cloned into a T7-promoter containing vector and transformed into BL21(DE3). The protein was expressed by induction with 1 mM IPTG as an N-terminal His-tag fusion protein at 18° C. overnight and harvested at 30,000×g. Cells were lysed with lysozyme in lysis buffer (50 mM Tris-HCl, 2 mM Tris[2-carboxyethyl]phosphine (TCEP), 10 μM ZnCl2, 200 mM NaCl) and further treated with sonication for 10 min for complete lysis. The protein was purified over a Ni-NTA column (Amersham) and fractions containing pure protein were pooled, concentrated and run over a sizing column (Sephadex S200 26/60 global). The peak containing soluble protein was collected and run on an Ion-exchange column (MonoQ). Gradient elution (200 mM-500 mM NaCl) yielded pure protein. This protein was concentrated and dialyzed against dialysis buffer (20 mM Tris-HCl, 2 mM TCEP) overnight. The protein was aliquoted and frozen at −80° C. until further use.
“NT” means not tested; “ND” means not determinable.
For `O=C(Nc1ccnc(OC[C@@H](O)CO)n1)N1c2nc(-c3cccc(C(F)(F)F)c3)ncc2N2CC[C@H]1C2` [Example 17, (8S)—N-(2-((S)-2,3-dihydroxypropoxy)pyrimidin-4-yl)-2-(3-(trifluoromethyl)phenyl)-7,8-dihydro-5,8-methanopyrimido[4,5-b][1,4]diazepine-9(6H)-carboxamide], the “TRP Activity (EC1.5, concentration of compound required to increase SIRT1 activity by 50% over control)” value is “B (EC1.5 1-25 μM)” and the “TRP MAX RESP (percent maximum fold activation relative to control)” value was “A (Fold activation ≥150%)”.

Take `Cc1ncc(-c2ccnc(NC(=O)N3c4nc(C(=O)NCC(F)(F)F)ncc4N4CC[C@H]3C4)c2)o1` [Example 61, (8S)—N9-(4-(2-methyloxazol-5-yl)-pyridin-2-yl)-N2-(2,2,2-trifluoroethyl)-7,8-dihydro-5,8-methanopyrimido-[4,5-b][1,4]-diazepine-2,9(6H)-dicarboxamide]: the “TRP Activity (EC1.5, concentration of compound required to increase SIRT1 activity by 50% over control)” value is reported as “B (EC1.5 1-25 μM)” and the “TRP MAX RESP (percent maximum fold activation relative to control)” value is “A (Fold activation ≥150%)”.

Consider `O=C(Nc1ccc(OC[C@@H](O)CO)cn1)N1c2nc(-c3cccc(C(F)(F)F)c3)ncc2N2CCC[C@H]1C2` [Example 98, (9S)—N-(5-((S)-2,3-dihydroxypropoxy)pyridin-2-yl)-2-(3-(trifluoromethyl)phenyl)-8,9-dihydro-6H-5,9-methanopyrimido[4,5-b][1,4]diazocine-10(7H)-carboxamide], for which the “TRP Activity (EC1.5, concentration of compound required to increase SIRT1 activity by 50% over control)” value is “A (EC1.5<1 μM)” and the “TRP MAX RESP (percent maximum fold activation relative to control)” value is on record as “A (Fold activation ≥150%)”.

For the compound `O=C(Nc1cnc(OC[C@@H](O)CO)cn1)N1c2nc(-c3cccc(C(F)(F)F)c3)ncc2N2CC[C@H]1C2` [Example 23, (8S)—N-(5-((S)-2,3-dihydroxypropoxy)pyrazin-2-yl)-2-(3-(trifluoromethyl)phenyl)-7,8-dihydro-5,8-methanopyrimido[4,5-b][1,4]diazepine-9(6H)-carboxamide], the “TRP Activity (EC1.5, concentration of compound required to increase SIRT1 activity by 50% over control)” value was “B (EC1.5 1-25 μM)” and the “TRP MAX RESP (percent maximum fold activation relative to control)” value is recorded as “A (Fold activation ≥150%)”.

`O=C(Nc1ccccn1)N1c2nc(-c3cccc(C(F)(F)F)c3)ncc2N2CCC[C@H]1C2` [Example 86, (9S)—N-(pyridin-2-yl)-2-(3-(trifluoromethyl)phenyl)-8,9-dihydro-6H-5,9-methanopyrimido[4,5-b][1,4]diazocine-10(7H)-carboxamide]: the “TRP Activity (EC1.5, concentration of compound required to increase SIRT1 activity by 50% over control)” value is recorded as “A (EC1.5<1 μM)”.

Take `O=C(Nc1cncc(OC[C@@H](O)CO)c1)N1c2nc(-c3cccc(C(F)(F)F)c3)ncc2N2CCC[C@H]1C2` [Example 94, (9S)—N-(5-((S)-2,3-dihydroxypropoxy)pyridin-3-yl)-2-(3-(trifluoromethyl)phenyl)-8,9-dihydro-6H-5,9-methanopyrimido[4,5-b][1,4]diazocine-10(7H)-carboxamide]: the “TRP Activity (EC1.5, concentration of compound required to increase SIRT1 activity by 50% over control)” value is on record as “A (EC1.5<1 μM)” and the “TRP MAX RESP (percent maximum fold activation relative to control)” value was “A (Fold activation ≥150%)”.

For the compound `C[C@@H](NC(=O)c1ncc2c(n1)N(C(=O)Nc1cccc(OC[C@@H](O)CO)n1)[C@H]1CCCN2C1)C(F)(F)F` [Example 117, (9S)—N10-(6-((S)-2,3-dihydroxypropoxy)pyridin-2-yl)-N2-((R)-1,1,1-trifluoropropan-2-yl)-8,9-dihydro-6H-5,9-methanopyrimido[4,5-b][1,4]diazocine-2,10(7H)-dicarboxamide], the “TRP Activity (EC1.5, concentration of compound required to increase SIRT1 activity by 50% over control)” value is reported as “B (EC1.5 1-25 μM)” and the “TRP MAX RESP (percent maximum fold activation relative to control)” value is given as “A (Fold activation ≥150%)”.
